# Assay results from PMC7362424, “Structural elucidation, molecular docking, α-amylase and α-glucosidase inhibition studies of 5-amino-nicotinic acid derivatives” (BMC Chemistry, 2020).
row,SMILES,melting point [°C]
1,"O=C(O)c1cncc(NC(=S)Nc2ccccc2)c1 [Compound 1, 5-(3-Phenylthioureido)pyridine-3-carboxylic acid]",> 300
2,"O=C(O)c1cncc(NC(=S)Nc2ccc(Cl)cc2)c1 [Compound 2, 5-(3-(4-Chlorophenyl)thioureido)pyridine-3-carboxylic acid]",> 300
3,"Cc1ccc(NC(=S)Nc2cncc(C(=O)O)c2)cc1 [Compound 3, 5-(3-p-Tolylthioureido)pyridine-3-carboxylic acid]",> 300
4,"O=C(O)c1cncc(NC(=S)Nc2ccc(F)cc2)c1 [Compound 4, 5-(3-(4-Fluorophenyl)thioureido)pyridine-3-carboxylic acid]",> 300
5,"O=C(O)c1cncc(NC(=S)Nc2ccc([N+](=O)[O-])cc2)c1 [Compound 5, 5-(3-(4-Nitrophenyl)thioureido) pyridine-3-carboxylic acid]",> 300
6,"COc1ccc(NC(=S)Nc2cncc(C(=O)O)c2)cc1 [Compound 6, 5-(3-(4-Methoxyphenyl)thioureido) pyridine-3-carboxylic acid]",> 300
7,"O=C(O)c1cncc(NC(=S)Nc2ccc(Br)cc2)c1 [Compound 7, 5-(3-(4-Bromophenyl)thioureido) pyridine-3-carboxylic acid]",> 300

# The remaining lines, values ahead:
row,melting point [°C],SMILES
1,> 300,"O=C(O)c1cncc(NC(=S)Nc2ccc(C(F)(F)F)cc2)c1 [Compound 8, 5-(3-(4-(Trifluoromethyl)phenyl)thioureido) pyridine-3-carboxylic acid]"
2,> 300,"Cc1ccc(NC(=S)Nc2cncc(C(=O)O)c2)cc1Cl [Compound 9, 5-(3-(3-Chloro-4-methylphenyl)thioureido) pyridine-3-carboxylic acid]"
3,> 300,"O=C(O)c1cncc(NC(=S)Nc2ccccc2F)c1 [Compound 10, 5-(3-(2-Fluorophenyl)thioureido) pyridine-3-carboxylic acid]"
4,> 300,"O=C(O)c1cncc(NC(=S)Nc2cccc(F)c2)c1 [Compound 11, 5-(3-(3-Fluorophenyl)thioureido) pyridine-3-carboxylic acid]"
5,> 300,"O=C(O)c1cncc(NC(=S)Nc2ccccc2Br)c1 [Compound 12, 5-(3-(2-Bromophenyl)thioureido) pyridine-3-carboxylic acid]"
6,> 300,"O=C(O)c1cncc(NC(=S)Nc2cccc(Br)c2)c1 [Compound 13, 5-(3-(3-Bromophenyl)thioureido) pyridine-3-carboxylic acid]"
